From patent publication US8524705B2, “2-oxo-2-(2-phenyl-5,6,7,8-tetrahydro-indolizin-3-yl)-acetamide derivatives and related compounds as antifungal agents” (F2G Limited British Body Corporate, priority 2007, dated 2013) come the findings set out here.

The MIC is the smallest concentration in the dilution series that meets the test's criterion for growth inhibition. Read a high MIC as weaker potency.

Assay type in all cases: cell-based
Settings in all cases: banded into grades

The test system of one assay is Aspergillus flavus. Description: Measurement of Minimum Inhibitory Concentrations (MICs), A. flavus. The method, then:
(§1) Between 1 and 5 mgs of compound were accurately weighed out into a sterile Eppendorf tube. The compound was dissolved in DMSO to give a solution containing 5 mg/mL. Tubes were stored at −20° C. until required. On the day of testing thawed solutions were vortex mixed to ensure homogeneity. 30 μL of solution was removed and added to 570 μL of sterile water in a separate sterile Eppendorf. The thoroughly mixed solution was used to prepare a series of doubling dilutions in water, in a deep well plate. […] replicate plates were prepared using a Minitrak by aspirating […] from each well into eleven clear polystyrene 96 well plates. Spores of Aspergillus spp. (Aspergillus fumigatus [two strains], Aspergillus terreus [two strains], Aspergillus niger and Aspergillus flavus) were harvested from cultures grown on Sabarauds agar for 5 days, and resuspended in PBS/Tween 80 to approx 1×10^7 cfu/mL. Each organism suspension was diluted in YAG medium (1% glucose, 1% ammonium chloride and 0.5% yeast extract) to 0.5-2×10^4 cfu/mL. 80 μL of an organism suspension was added to each well of the plate containing drug dilutions. This produced MIC plates with a drug range 50-0.05 mg/L and organism inocula of 1−2×10^4 cfu/mL for Aspergillus spp. All plates were incubated for 24 hrs at 35° C. Growth was assessed by monitoring the optical density at 485 nm for each well. The MIC of a compound is the lowest drug concentration that inhibits growth of an organism by >70% compared with a drug free control. MICs are recorded as mg/L. In cases where the MIC of an organism is >=0.05 mg/L the MIC is repeated using a concentration range of 0.5-0.0005 mg/L. Other growth media can be used for susceptibility testing, and the activity of the described compounds was also assessed in RPMI medium containing 2% glucose, and 0.135M MOPS buffer. MIC tests in YAG medium have more clear-cut endpoints and have slightly lower MICs than those performed in RPMI medium. The following organisms were tested: Aspergillus flavus, Aspergillus fumigatus AF293 and AF210, Aspergillus niger and Aspergillus terreus AT4 and AT49.

The test system of assay [1] is Aspergillus fumigatus AF293. Description: Measurement of Minimum Inhibitory Concentrations (MICs), A. fumigatus. Here is the method: as §1
Assay [2] has as its system Aspergillus fumigatus AF210. Description: Measurement of Minimum Inhibitory Concentrations (MICs), A. fumigatus 210. Here is the method: as §1
A further assay concerns Aspergillus niger. In words: Measurement of Minimum Inhibitory Concentrations (MICs), A. niger. The method, then: as §1
For another assay, the system named is Aspergillus terreus AT4. Description: Measurement of Minimum Inhibitory Concentrations (MICs), A. terreus. Here is the method: as §1
A further assay deals with Aspergillus terreus AT49. In words: Measurement of Minimum Inhibitory Concentrations (MICs), A. terreus 49. The method, then:
as §1

Where [3] appears, read: RPMI medium containing 2% glucose, 0.135M MOPS buffer.
The mark [4] stands for this setting: YAG medium, 24 hrs at 35° C., >70% growth inhibition.

In brackets after ≈: the same amount, converted by molar mass.

As for `Cc1cc(C)nc(N2CCN(c3ccc(NC(=O)C(=O)c4c(-c5ccccc5)cc5n4CCCC5)cc3)CC2)c1` [Example 3, N-{4-[4-(4,6-dimethyl-pyridin-2-yl)-piperazin-1-yl]-phenyl}-2-oxo-2-(2-phenyl-5,6,7,8-tetrahydro-indolizin-3-yl)-acetamide], the MIC (in the assay on Aspergillus flavus (setting [3]); in the assay on Aspergillus flavus (setting [4]); in assay [1] (setting [3]); in assay [1] (setting [4]); in assay [2] (setting [3]); in assay [2] (setting [4])) was below 1 µg/mL each time. For the same compound, the minimal inhibitory concentration (MIC) with Aspergillus niger (setting [3]), in the assay on Aspergillus niger (setting [4]), against Aspergillus terreus AT4 (setting [3]), in the assay with Aspergillus terreus AT4 (setting [4]), in the assay on Aspergillus terreus AT49 (setting [3]) and in the assay with Aspergillus terreus AT49 (setting [4]) was below 1 µg/mL each time.

Consider `O=C(Nc1ccc(N2CCN(c3ccc(CN4CCOCC4)cn3)CC2)cc1)C(=O)c1c(-c2ccccc2)cc2n1CCCC2` [Example 18, N-{4-[4-(5-Morpholin-4-ylmethyl-pyridin-2-yl)-piperazin-1-yl]-phenyl}-2-oxo-2-(2-phenyl-5,6,7,8-tetrahydro-indolizin-3-yl)-acetamide], for which the minimum inhibitory concentration (MIC) (with Aspergillus flavus (setting [3]); in the assay with Aspergillus flavus (setting [4]); in assay [1] (setting [3]); in assay [1] (setting [4]); in assay [2] (setting [3]); in assay [2] (setting [4])) was below 1 µg/mL in each case. In addition, the MIC against Aspergillus niger (setting [3]), in the assay with Aspergillus niger (setting [4]), in the assay with Aspergillus terreus AT4 (setting [3]), with Aspergillus terreus AT4 (setting [4]), with Aspergillus terreus AT49 (setting [3]) and in the assay with Aspergillus terreus AT49 (setting [4]) was below 1 µg/mL in each case.

Turning to `Cc1cc(C)nc(N(C)CCN(C)c2ccc(NC(=O)C(=O)c3c(-c4ccccc4)cc4n3CCCC4)cc2)c1` [Example 7, N-[4-({2-[(4,6-Dimethyl-pyridin-2-yl)-methyl-amino]-ethyl}-methyl-amino)-phenyl]-2-oxo-2-(2-phenyl-5,6,7,8-tetrahydro-indolizin-3-yl)-acetamide], the MIC (against Aspergillus flavus (setting [3]); with Aspergillus flavus (setting [4]); in assay [1] (setting [3]); in assay [1] (setting [4]); in assay [2] (setting [3]); in assay [2] (setting [4])) was below 1 µg/mL each time. Further, the MIC in the assay with Aspergillus niger (setting [3]), with Aspergillus niger (setting [4]), against Aspergillus terreus AT4 (setting [3]), in the assay with Aspergillus terreus AT4 (setting [4]), in the assay with Aspergillus terreus AT49 (setting [3]) and against Aspergillus terreus AT49 (setting [4]) was below 1 µg/mL each time.

Regarding `Cc1cc(C)nc(N2CCN(c3ccc(NC(=O)C(=O)c4c(-c5ccccc5)cc5n4CCCC5)cc3O)CC2)c1` [Example 31, N-{4-[4-(4,6-Dimethyl-pyridin-2-yl)-piperazin-1-yl]-3-hydroxy-phenyl}-2-oxo-2-(2-phenyl-5,6,7,8-tetrahydro-indolizin-3-yl)-acetamide], the MIC (against Aspergillus flavus (setting [3]); with Aspergillus flavus (setting [4]); in assay [1] (setting [3]); in assay [1] (setting [4]); in assay [2] (setting [3]); in assay [2] (setting [4])) was below 1 µg/mL in each case. The MIC in the assay with Aspergillus niger (setting [3]), in the assay on Aspergillus niger (setting [4]), in the assay on Aspergillus terreus AT4 (setting [3]), with Aspergillus terreus AT4 (setting [4]), in the assay with Aspergillus terreus AT49 (setting [3]) and against Aspergillus terreus AT49 (setting [4]) was below 1 µg/mL in each case.

`CC(C)(C)CN1CCN(c2ccc(NC(=O)C(=O)c3c(-c4ccccc4)cc4n3CCCC4)cc2)CC1` [Example 2, N-{4-[4-(2,2-dimethyl-propyl)-piperazin-1-yl]-phenyl}-2-oxo-2-(2-phenyl-5,6,7,8-tetrahydro-indolizin-3-yl)-acetamide]: the MIC (against Aspergillus flavus (setting [3]); against Aspergillus flavus (setting [4]); in assay [1] (setting [3]); in assay [1] (setting [4]); in assay [2] (setting [3]); in assay [2] (setting [4])) was below 1 µg/mL each time. In addition, the MIC against Aspergillus niger (setting [3]), against Aspergillus niger (setting [4]), with Aspergillus terreus AT4 (setting [3]), against Aspergillus terreus AT4 (setting [4]), in the assay on Aspergillus terreus AT49 (setting [3]) and with Aspergillus terreus AT49 (setting [4]) was below 1 µg/mL each time.

`Cc1cc(C)nc(N2CCN(c3ccc(NC(=O)C(=O)c4c(-c5ccccc5)cc5n4CCCC5)cc3Cl)CC2)c1` [Example 27, N-{3-Chloro-4-[4-(4,6-dimethyl-pyridin-2-yl)-piperazin-1-yl]-phenyl}-2-oxo-2-(2-phenyl-5,6,7,8-tetrahydro-indolizin-3-yl)-acetamide]: the MIC (against Aspergillus flavus (setting [3]); against Aspergillus flavus (setting [4]); in assay [1] (setting [3]); in assay [1] (setting [4]); in assay [2] (setting [3]); in assay [2] (setting [4])) was below 1 µg/mL each time. In addition, the minimum inhibitory concentration (MIC) against Aspergillus niger (setting [3]), in the assay with Aspergillus niger (setting [4]), against Aspergillus terreus AT4 (setting [3]), in the assay on Aspergillus terreus AT4 (setting [4]), in the assay on Aspergillus terreus AT49 (setting [3]) and against Aspergillus terreus AT49 (setting [4]) was below 1 µg/mL each time.

For the compound `C=C(C)CN1CCN(c2ccc(NC(=O)C(=O)c3c(-c4ccccc4)cc4n3CCCC4)cc2)CC1` [Example 1, N-{4-[4(2-methyl-allyl)-piperazin-1-yl]-phenyl}-2-oxo-2-(2-phenyl-5,6,7,8-tetrahydro-indolizin-3-yl)-acetamide], the minimum inhibitory concentration (MIC) (with Aspergillus flavus (setting [3]); with Aspergillus flavus (setting [4]); in assay [1] (setting [3]); in assay [1] (setting [4]); in assay [2] (setting [3]); in assay [2] (setting [4])) was below 1 µg/mL each time. For the same compound, the MIC against Aspergillus niger (setting [3]), against Aspergillus niger (setting [4]), against Aspergillus terreus AT4 (setting [3]), in the assay with Aspergillus terreus AT4 (setting [4]), against Aspergillus terreus AT49 (setting [3]) and in the assay on Aspergillus terreus AT49 (setting [4]) was below 1 µg/mL throughout.

As to `Cc1cc(C)nc(N2CCN(c3ccc(N(C)C(=O)C(=O)c4c(-c5ccccc5)cc5n4CCCC5)cc3)CC2)c1` [Example 6, N-{4-[4-(4,6-dimethyl-pyridin-2-yl)-piperazin-1-yl]-phenyl}-N-methyl-2-oxo-2-(2-phenyl-5,6,7,8-tetrahydro-indolizin-3-yl)-acetamide], the MIC is above 10 µg/mL against Aspergillus flavus (setting [3]); above 10 µg/mL with Aspergillus flavus (setting [4]); above 10 µg/mL in assay [1] (setting [3]); 1 to 10 µg/mL (≈ 1.83 to 18.3 µM) in assay [1] (setting [4]); above 10 µg/mL in assay [2] (setting [3]); 1 to 10 µg/mL (≈ 1.83 to 18.3 µM) in assay [2] (setting [4]). Besides, the MIC is above 10 µg/mL in the assay with Aspergillus niger (setting [3]); above 10 µg/mL against Aspergillus niger (setting [4]); above 10 µg/mL in the assay on Aspergillus terreus AT4 (setting [3]); above 10 µg/mL with Aspergillus terreus AT4 (setting [4]); above 10 µg/mL against Aspergillus terreus AT49 (setting [3]); 1 to 10 µg/mL (≈ 1.83 to 18.3 µM) with Aspergillus terreus AT49 (setting [4]).

Take `Cc1cc(C)nc(N2CCC(O)(c3ccc(NC(=O)C(=O)c4c(-c5ccccc5)cc5n4CCCC5)cc3)CC2)c1` [Example 21, N-[4-(4-Hydroxy-4′,6′-dimethyl-3,4,5,6-tetrahydro-2H-[1,2′]bipyridinyl-4-yl)-phenyl]-2-oxo-2-(2-phenyl-5,6,7,8-tetrahydro-indolizin-3-yl)-acetamide]: the MIC (against Aspergillus flavus (setting [3]); in the assay on Aspergillus flavus (setting [4]); in assay [1] (setting [3]); in assay [1] (setting [4]); in assay [2] (setting [3]); in assay [2] (setting [4])) was below 1 µg/mL in each case. Further, the minimal inhibitory concentration (MIC) against Aspergillus niger (setting [3]), against Aspergillus niger (setting [4]), in the assay with Aspergillus terreus AT4 (setting [3]), in the assay on Aspergillus terreus AT4 (setting [4]), in the assay on Aspergillus terreus AT49 (setting [3]) and in the assay with Aspergillus terreus AT49 (setting [4]) was below 1 µg/mL each time.

On to `CCc1cccc(N2CCN(c3ccc(NC(=O)C(=O)c4c(-c5ccccc5)cc5n4CCCC5)cc3)CC2)n1` [Example 15, N-{4-[4-(6-Ethyl-pyridin-2-yl)-piperazin-1-yl]-phenyl}-2-oxo-2-(2-phenyl-5,6,7,8-tetrahydro-indolizin-3-yl)-acetamide], for which the MIC (with Aspergillus flavus (setting [3]); against Aspergillus flavus (setting [4]); in assay [1] (setting [3]); in assay [1] (setting [4]); in assay [2] (setting [3]); in assay [2] (setting [4])) was below 1 µg/mL each time. For the same compound, the MIC against Aspergillus niger (setting [3]), in the assay with Aspergillus niger (setting [4]), against Aspergillus terreus AT4 (setting [3]), with Aspergillus terreus AT4 (setting [4]), with Aspergillus terreus AT49 (setting [3]) and with Aspergillus terreus AT49 (setting [4]) was below 1 µg/mL throughout.

Consider `Cc1cc(C)nc(OCCOc2ccc(NC(=O)C(=O)c3c(-c4ccccc4)cc4n3CCCC4)cc2)c1` [Example 9, N-{4-[2-(4,6-Dimethyl-pyridin-2-yloxy)-ethoxy]-phenyl}-2-oxo-2-(2-phenyl-5,6,7,8-tetrahydro-indolizin-3-yl)-acetamide], for which the minimum inhibitory concentration (MIC) (in the assay with Aspergillus flavus (setting [3]); against Aspergillus flavus (setting [4]); in assay [1] (setting [3]); in assay [1] (setting [4]); in assay [2] (setting [3]); in assay [2] (setting [4])) was below 1 µg/mL throughout. In addition, the MIC in the assay with Aspergillus niger (setting [3]), against Aspergillus niger (setting [4]), against Aspergillus terreus AT4 (setting [3]), against Aspergillus terreus AT4 (setting [4]), with Aspergillus terreus AT49 (setting [3]) and in the assay with Aspergillus terreus AT49 (setting [4]) was below 1 µg/mL each time.
